Measured values reported in patent US5234822A, “Trypanosoma cruzi heparin-binding protein and antibodies thereto” (priority 1991, dated 1993).

Tests used:
[1] = test system: T. cruzi trypomastigotes adhering to glutaraldehyde-fixed Vero cells; assay: Inhibition of trypomastigote binding to Vero cells; type: cell-based, Trypanosoma cruzi; details: trypomastigotes preincubated 30 min at 37° C., binding 60 min
Experimental: In these experiments attachment of trypomastigotes to Vero cell monolayers was measured as follows. Briefly, Vero cells were maintained in RPMI 1640 supplemented with heat-inactivated 1% Nu-serum (Collaborative Research Inc., Bedford, Mass.), penicillin (100 U/ml) and streptomycin ([…]). Unless noted otherwise, cells were maintained in plastic tissue culture flasks (150 cm^2, Bellco, Vineland, N.J.) and incubated at 37° C. in a humidified atmosphere containing 5% CO2 and 95% air. Cells were propagated every 1-2 weeks after trypsin-EDTA digestion (0.5 g trypsin, 0.2 g EDTA in HBSS without Ca^++ and Mg^++) in 16-well Lab-Tek® chamber slide™ (Nunc, Inc., Naperville, Ill.. Prior to binding experiments Vero cells were removed with trypsin and plated on 96-well tissue culture plates (Bellco, Vineland, N.J.) or in 16-well Lab-Tek® chamber slide™ at a density of 7.5×10^3 cells per well. After 24 h, the medium was removed, cells were washed twice with PBS, pH 7.2, and fixed for 5 min at 4° C. by addition of 2% glutaraldehyde (grade I, Sigma Chemical Co., St. Louis, Mo.) in PBS. Cell monolayers were washed twice with PBS, pH 7.2 and incubated overnight at 4° C. in 0.16M ethanolamine, pH 8.3 to block residual free […] amino groups. The next day, cell monolayers were washed three times with PBS as above, and two times with 1% BSA/RPMI-1640 and kept at least 1 h at 37° C. in the same medium.
Trypomastigotes, [^35 S]-labeled as described above, were added to the cell monolayers in a total volume of 100 μl/well and the plates were incubated for 1 h at 37° C. Each well was then washed five times with 100 μl prewarmed PBS (pH 7.2). The [^35 S] label was solubilized with 2M NaOH and the bound radioactivity was determined in a liquid scintillation counter. Alternatively, unlabeled trypomastigotes were added to wells of a 16-well Lab-Tek® chamber slide™ and incubated as above. After removing the plastic chamber, the slide was washed by dipping 5 times in PBS (pH 7.2) and immersed upside-down in 4% paraformaldehyde in PBS, containing 7% sucrose. Finally, the slide was rinsed with PBS, stained with Diff-Quik®and the number of bound T. cruzi were determined by counting under light microscopy. For inhibition studies, trypomastigotes were preincubated 30 min at 37° C. with the appropriate proteoglycan in 100 μl of 1% BSA-RPMI- 1640 before addition to cell monolayers. Binding was determined in triplicate at each inhibitor concentration and in the absence of inhibitor.
In this assay 100% binding was taken to 5 ×10^4 trypomastigotes/well bound in 60 min.

[2] = test system: T. cruzi penetrin (60 kD trypomastigote heparin-binding protein), column-purified; assay: Binding of column-purified [125I]-labeled penetrin to fibroblasts (Vero cells); design: species or system Trypanosoma cruzi
Experimental: Binding of [^125 I]-labeled penetrin to Vero cells was assayed as follows. Vero cells, grown in multiwell plates to confluence as described above, were rinsed once with 1% BSA-RPMI-1640, and incubated at 37° C. with increasing concentrations of [^125 I]-labeled penetrin. After 1 h the medium was removed, cell monolayers were washed three times with PBS, solubilized with 100 μl of 2M NaOH, and the retained radioactivity measured in a gamma counter. For inhibition experiments, an aliquot of [^125 I]-labeled penetrin was preincubated with the potential inhibitors prior to adding to confluent cells, and processed as above.

[3] = test system: T. cruzi penetrin (60 kD trypomastigote heparin-binding protein), column-purified; assay: Binding of column-purified [125I]-labeled penetrin to heparin-Sepharose; design: species or system Trypanosoma cruzi; details: compound 100 μg/ml; Bovine Serum Albumin control 1.9
Experimental: To determine if [^125 I]-labeled penetrin was still active in binding extracellular matrix proteins after isolation by heparin affinity chromatography, rebinding and inhibition of rebinding to heparin-Sepharosebeads was performed. Briefly, column purified [^125 I]-labeled penetrin was incubated with or without compounds and mixed with 100 μl of heparin-Sepharose. The mixture was incubated at room temperature for 2 h under slow rocking. The slurry was then centrifuged (500× g, 5 min), washed three times with PBS, and bound radioactivity determined in a gamma counter. Referring to FIG. 7, in the absence of competitors, column-purified [^125 I]-labeled penetrin retained its ability to bind heparin-Sepharose.
For inhibition experiments, an aliquot of the purified heparin-binding protein was mixed with putative inhibitors for 1 h at room temperature, and the mixture added to 100 μl of heparin-Sepharose as above. The amount of [^125 I]-labeled protein retained by the agarose beads was assessed by elution of the protein with 1% SDS, SDS-polyacrylamide gel electrophoresis and autoradiography, and quantitated in a laser scanning densitometer (Pharmacia LKB, Ultroscan XL). One hundred percent binding was taken as the amount of protein retained by the heparin-Sepharose in the absence of added inhibitor. Referring to Table 2, adsorption of penetrin was inhibited by pre-incubation with soluble heparin, heparan sulfate or collagen, but not with other glycosaminoglycans (chondroitin sulfate and hyaluronic acid).

[4] = test system: E. coli XL-1 Blue with clone HBP-6 expressing penetrin, entering Vero cells; assay: Penetrin-mediated entry of E. coli into Vero cells (gentamicin survival); type: cell-based, Escherichia coli; details: 250 μg/ml; for inhibition of penetration of bacteria: E. coli preincubated with inhibitor; for survival of bacteria after gentamicin: 4.3% without inhibitor
Experimental: E. coli expressing penetrin are able to enter nonphagocytic mammalian cells which normally exclude E. coli. […] Recombinant bacteria were grown overnight at 37°, washed twice in PBS, resuspended at 10^8 cells/ml, and aliquots of 2×10^7 E coli were added to monolayers of 2×10^5 Vero cells per microliter well in 1 ml of RPMI 1640 medium containing 1% BSA. Bacteria were centrifuged onto the cell monolayer, and the cultures were incubated at 37° for 3 h in a 5% CO2 /95% air atmosphere, washed three times with sterile PBS, and incubated for an additional 1.5 h at 37° C. in RPMI 1640 medium containing 1% BSA and 75 μg/ml gentamicin (to kill bacteria bound to outer membrane). The monolayers were then washed three times in sterile PBS, and lysed with 0.5% Triton X-100 in deionized water to release internalized bacteria, which were quantitated in agar plates.

[5] = test system: T. cruzi trypomastigotes infecting Vero cells; assay: Inhibition of T. cruzi infection of Vero cells; type: cell-based, Trypanosoma cruzi; details: for effect on infection: FIG. 4, even at high concentrations; for concentration causing 50% reduction of infection: FIG. 4, parasites preincubated 30 min, 2 h interaction, 3 days culture
Experimental: In these experiments, cultured Vero cells were released with trypsin/EDTA, plated at 7.5×10^3 cells/well in 16-well Lab-Tek® chamber slides™ for 24 h, and used for infection at ~75% confluence. Trypomastigotes were harvested, washed with serum-free RPMI containing 1% BSA, and mixed with various concentrations of proteoglycans. After 30 min at 37° C., 5×10^5 parasites in a total volume of 100 μl were added to each well containing subconfluent cultures of Vero cells and allowed to interact for 2 h at 37° C. At the end of the incubation time, cell monolayers were rinsed three times with serum-free medium, and further incubated in RPMI-1640 containing 1% Nu-serum for 3 days at 37° C. Finally, monolayers were washed, stained with Diff-Quik®, and examined under a microscope to estimate the ratio of infected (i.e., Vero cell containing more than one intracellular amastigote) to non-infected Vero cells. In order to establish if the inhibitory effect was due to interaction of heparin and heparan sulfate with trypomastigotes rather than to Vero cells, parasites or host cells were preincubated with the putative inhibitors, washed extensively, and assayed for infection as above.

T. cruzi trypomastigotes = assay: Trypomastigote binding to heparin- or collagen-coated wells; type: cell-based, Trypanosoma cruzi; details: soluble compound
Experimental: Proteoglycans (dissolved in PBS) and collagen solubilized in 0.1N HCl and neutralized in PBS) were adsorbed onto plastic (Falcon 3912 polyvinylchloride 96-well microliter plates) by incubation overnight at 4° C. (Roberts et al., J. BioI. Chem. 264:9289, 1989). The unbound proteins were removed, the wells filled with 1% heat-treated BSA in PBS (56° C., 60 min and filtered in […] nitrocellulose filters to remove insoluble particles) and incubated for 1 h at room temperature. The wells were then washed twice with PBS (pH 7.2) and rinsed with RPMI 1640 containing 1% BSA. T. cruzi trypomastigotes, labeled with [^35 S] methionine, were resuspended in RPMI-BSA and 100 μl of the suspension was applied to the wells. After various periods of incubation at 37° C., the wells were carefully washed three times with 37° C. PBS (pH 7.2). T. cruzi bound to the plastic-bound proteoglycans were then solubilized with 100 μ l of 2 M NaOH, mixed with Ultrafluor (National Diagnostics, Manville, N.J.), and assayed by liquid scintillation counting. Referring to FIG. 1a, adherence of trypomastigotes to heparin-coated plates increased linearly with the length of incubation up to about 60 min. In a separate experiment trypomastigotes were added for 60 min, but the number added was varied. […] In contrast, non-specific binding to BSA-coated wells was less than 2%.

Substance	% Vero Cells with Trypomastigotes ([1]; inhibitor 250 μg/ml)	% Inhibition of penetrin binding to fibroblasts ([2]; compound 250 μg/ml)	Penetrin Bound [3]	effect on E. coli entry (in words) [4]	effect on infection [5]	% Vero Cells with Trypomastigotes ([1]; inhibitor 125 μg/ml)	inhibition of binding of [125I]-labeled penetrin to Vero cell monolayers (in words) [2]	inhibition of penetration of bacteria [4]	survival of bacteria after gentamicin [4]	inhibition of trypomastigote binding to coated wells (in words) (T. cruzi trypomastigotes)	concentration causing 50% reduction of infection [5]	% Inhibition of penetrin binding to fibroblasts ([2]; compound 5 μg/ml)	% Inhibition of penetrin binding to fibroblasts ([2]; compound 25 μg/ml)	% Inhibition of penetrin binding to fibroblasts ([2]; compound 50 μg/ml)	% Inhibition of penetrin binding to fibroblasts ([2]; compound 100 μg/ml)
Chondroitin Sulfate	96%	12%	1.6 cpm × 10^-3	without effect	little effect on infection	–	–	–	–	–	–	–	–	–	–
Heparan Sulfate	18%	65%	0.75 cpm × 10^-3	–	–	60%	inhiited	85%	0.6%	inhibited	1.5 µg/mL	–	–	–	–
Heparin	12.5%	91%	0.7 cpm × 10^-3	–	–	50%	inhiited	85%	0.6%	inhibited	100 µg/mL	25%	55%	75%	89%
Hyaluronic Acid	98%	–	1.8 cpm × 10^-3	without effect	little effect on infection	–	–	–	–	–	–	–	–	–	–
